From publication PMC3916804, “The development and validation of an LC-MS/MS method for the determination of a new anti-malarial compound (TK900D) in human whole blood and its application to pharmacokinetic studies in mice” (Malaria Journal, 2014)
Read-outs that look alike come from different tables or passages of the source. Each block holds one compound with its values, some of them ahead of it.

Columns and labels:
[1] = tested on: P. falciparum CQ-sensitive (3D7) strain; set-up: method as in PMID 24900630; conditions: read-out: in vitro antiplasmodial activity IC50; cited from earlier work
[2] = tested on: P. falciparum CQ-resistant (K1) strain; set-up: method as in PMID 24900630; conditions: read-out: in vitro antiplasmodial activity IC50; cited from earlier work
[3] = tested on: P. falciparum CQ-resistant (W2) strain; set-up: method as in PMID 24900630; conditions: read-out: in vitro antiplasmodial activity IC50; cited from earlier work
[4] = pharmacokinetic evaluation in mice (oral and IV), blood levels by LC-MS/MS; type: in vivo, C57/BL6 mice; conditions: for Blood CL total / Vd / Vss / AUC 0 - ∞ / Apparent t 1/2 / T max / Bioavailability / Cmax: male C57/BL6 mice; for AUC 0 - ∞ / Apparent t 1/2 / Cmax: blood; for Apparent t 1/2: mean of 5; for half-life: male, C57/BL6, mouse, whole blood, mice, read-out: apparent half-life, range
Description: Snapshot pharmacokinetic evaluations were performed on a number of analogues from the TK-series anti-malarial compounds. […] The test compound dissolved in a 20 mM Sodium acetate buffer (pH 4.0): Ethanol: PEG400 (70:5:25; v/v/) drug vehicle was administered orally to healthy C57/BL6 mice (n = 5) at doses of 40 and 20 mg/kg, and intravenously at doses of 5 and 2.5 mg/kg. Blood samples were collected at predetermined sampling times (except for the first sampling time, i.e. 5 minutes after dosing for the IV group and 10 minutes for the oral group, the sampling times were 0.5,1, 3, 5, 7, 12 and 24 h after dosing) by bleeding the tip of the tail, and analysed using a validated LC-MS/MS assay. Back-calculated concentrations of the blood samples were obtained from a standard regression curve with nine concentration levels (3.910 to 1000 ng/ml). Concentration vs. time profiles were constructed and the data analysed with Summit PK software to obtain the pharmacokinetic parameters.

[5] = stock solution stability in methanol; type: physicochemical; conditions: for stock solution stability in methanol, % Reference (peak area vs fresh): 100.0 μg/ml in methanol, eight days, n = 6; for stability in methanol (in words): at room temperature, 5°C, and -20°C
Description: The stability of TK900D and TK900E in methanol was evaluated at room temperature, ~ 5°C and ~ -20°C. Stock solutions with concentrations of 100.0 μg/ml of TK900D and the internal standard were prepared in methanol. Three aliquots of each of the stock solutions were kept at room temperature, ~ 5 °C, and ~ –20°C, respectively, for eight days. After diluting the stored stock solutions in injection solvent to a 100.0 ng/ml, the stability of TK900D and that of the internal standard were assessed by comparing the peak areas obtained from the stored stock solutions with peak areas of the freshly prepared stock solutions. For stock solution results to be acceptable the percentage reference value should not exceed 15%.

[6] = on-instrument stability (OIS) of extracted samples; type: physicochemical; conditions: for on-instrument stability (in words): ~ 8.2 h on-instrument; for OIS (on-instrument stability), % Bias: extracted samples on instrument, n = 6
Description: In order to assess the stability of the analytes while awaiting injection on instrument, on-instrument stability (OIS) was assessed for the period of time that the extracted samples were expected to stay on-instrument during the batch run-time (~ 9 h). Quality control samples at high and low concentrations (800.0 ng/ml and 10.01 ng/ml, respectively), were extracted in replicates of six and injected at the beginning and end of the run (i.e. six QC-high and six QC-low at the beginning of the run and another set of six QC-high and QC-low at the end of the run bracketed with quality control samples). The mean measured concentration of the OIS-samples (injected at the end of the run) and OIS-reference samples (injected at the beginning of the run) were compared: in order to be acceptable, their percentage difference should be within ± 15%.

[7] = long-term stability in human whole blood; type: in vitro ADME; conditions: for Long term stability, % Bias from nominal: human whole blood, ~ -80°C, 181 days, n = 6
Description: For the determination of long-term stability in human whole blood, TK900D spiked quality control samples at 800.0 ng/ml and 10.01 ng/ml were stored at ~ -80°C for 181 days (long enough to cover the time period elapsed from the first day of sample collection to the final sample analysis). These samples were thawed on the day of testing and run together with freshly prepared calibration standards and quality controls and the values were calculated from the resulting calibration curve obtained from the calibration standards.

[8] = freeze and thaw stability in blood; type: in vitro ADME, human; conditions: for Freeze and thaw stability, % Bias from nominal: blood, three freeze-thaw cycles from ~ -80°C, n = 6
Description: Quality control blood samples at high and low concentration, 800.0 and 10.01 ng/ml respectively, of TK900D stored frozen at ~ -80°C were allowed to thaw completely unassisted at room temperature and then refrozen for 12 to 24 hours. After three such freeze-thaw cycles the samples were assayed in the third validation run and the measured concentrations were compared with the nominal concentrations of these samples.

[9] = short-term (on-bench) stability in blood; type: in vitro ADME, human; conditions: for On bench stability, % Bias from nominal: blood, room temperature on bench, n = 6
Description: […] The samples were assayed in one of the validation batches. The measured concentrations were compared with the nominal concentrations of these samples.

CHO mammalian cell line = tested on: CHO mammalian cell line; set-up: method as in PMID 24900630; conditions: MTT assay, read-out: cytotoxicity IC50; cited from earlier work
[10] = other: oral and intravenous, over all oral and IV dose groups
[11] = as summarised in abstract (matches oral 40 and 20 mg/kg groups)

SMILES: CCN(CC)CCCC(C)Nc1ccnc2cc(Cl)ccc12 (stereo not drawn) [CQ, Chloroquine, reference compound]
IC50 [1]: 0.0002 µM
IC50 [2]: 0.036 µM
IC50 [3]: 0.0591 µM

Blood CL total ([4]; IV 2.5 mg/kg): 51.2 mL/min/kg
Vd ([4]; IV 2.5 mg/kg): 7.0 L/kg
Vss ([4]; IV 2.5 mg/kg): 6.5 L/kg
AUC 0 - ∞ ([4]; IV 2.5 mg/kg): 107 µmol·min/L
Apparent t 1/2 ([4]; IV 2.5 mg/kg): 1.6 h
Blood CL total ([4]; IV 5.0 mg/kg): 51.0 mL/min/kg
Vd ([4]; IV 5.0 mg/kg): 10.3 L/kg
Vss ([4]; IV 5.0 mg/kg): 12.6 L/kg
AUC 0 - ∞ ([4]; IV 5.0 mg/kg): 221 µmol·min/L
Apparent t 1/2 ([4]; IV 5.0 mg/kg): 2.5 h
T max ([4]; oral 20 mg/kg): 0.8 h
Bioavailability ([4]; oral 20 mg/kg vs IV 2.5 mg/kg): 25.9%
AUC 0 - ∞ ([4]; oral 20 mg/kg): 222 µmol·min/L
Cmax ([4]; oral 20 mg/kg): 940 nM
Apparent t 1/2 ([4]; oral 20 mg/kg): 3.6 h
T max ([4]; oral 40 mg/kg): 1.0 h
Bioavailability ([4]; oral 40 mg/kg vs IV 5 mg/kg): 30.6%
AUC 0 - ∞ ([4]; oral 40 mg/kg): 541 µmol·min/L
Cmax ([4]; oral 40 mg/kg): 2810 nM
Apparent t 1/2 ([4]; oral 40 mg/kg): 4.0 h
half-life [4, 10]: 1.6 to 4 h
half-life [4, 11]: 3.6 to 4 h
stock solution stability in methanol, % Reference (peak area vs fresh) ([5]; room temperature): 102.8%
stock solution stability in methanol, % Reference (peak area vs fresh) ([5]; ~ 5°C): 103.5%
stock solution stability in methanol, % Reference (peak area vs fresh) ([5]; ~ -20°C): 98.2%
stability in methanol (in words) [5]: stable
on-instrument stability (in words) [6]: stable
SMILES: CC(C)(C)n1nnnc1C(NCCNc1ccnc2cc(Cl)ccc12)c1ccc(Cl)cc1 (stereo not drawn) [TK900E]
IC50 [1]: 0.002 µM
IC50 [2]: 0.001 µM
IC50 [3]: 0.0255 µM

Blood CL total ([4]; IV 2.5 mg/kg): 48.9 mL/min/kg
Vd ([4]; IV 2.5 mg/kg): 7.9 L/kg
Vss ([4]; IV 2.5 mg/kg): 8.7 L/kg
AUC 0 - ∞ ([4]; IV 2.5 mg/kg): 104 µmol·min/L
Apparent t 1/2 ([4]; IV 2.5 mg/kg): 1.9 h
Blood CL total ([4]; IV 5.0 mg/kg): 44.8 mL/min/kg
Vd ([4]; IV 5.0 mg/kg): 8.9 L/kg
Vss ([4]; IV 5.0 mg/kg): 9.1 L/kg
AUC 0 - ∞ ([4]; IV 5.0 mg/kg): 222 µmol·min/L
Apparent t 1/2 ([4]; IV 5.0 mg/kg): 2.3 h
T max ([4]; oral 20 mg/kg): 1.4 h
Bioavailability ([4]; oral 20 mg/kg vs IV 2.5 mg/kg): 30.8%
AUC 0 - ∞ ([4]; oral 20 mg/kg): 256 µmol·min/L
Cmax ([4]; oral 20 mg/kg): 540 nM
Apparent t 1/2 ([4]; oral 20 mg/kg): 6.0 h
T max ([4]; oral 40 mg/kg): 1.4 h
Bioavailability ([4]; oral 40 mg/kg vs IV 5 mg/kg): 16.2%
AUC 0 - ∞ ([4]; oral 40 mg/kg): 287 µmol·min/L
Cmax ([4]; oral 40 mg/kg): 790 nM
Apparent t 1/2 ([4]; oral 40 mg/kg): 3.9 h
half-life [4, 10]: 2 to 6 h
half-life [4, 11]: 4 to 6 h
stock solution stability in methanol, % Reference (peak area vs fresh) ([5]; room temperature): 106.9%
stock solution stability in methanol, % Reference (peak area vs fresh) ([5]; ~ 5°C): 105.2%
stock solution stability in methanol, % Reference (peak area vs fresh) ([5]; ~ -20°C): 100.3%
stability in methanol (in words) [5]: stable
stability in human whole blood (in words) ([7]; 181 days stored at -80°C): stable
Long term stability, % Bias from nominal ([7]; High (800.0 ng/ml)): 0.7%
Long term stability, % Bias from nominal ([7]; Low (10.01 ng/ml)): -4.0%
freeze-thaw stability (in words) ([8]; at least three freeze-thaw cycles): stable
Freeze and thaw stability, % Bias from nominal ([8]; High (800.0 ng/ml)): 6.6%
Freeze and thaw stability, % Bias from nominal ([8]; Low (10.01 ng/ml)): 8.6%
On bench stability, % Bias from nominal ([9]; High (800.0 ng/ml)): 8.3%
On bench stability, % Bias from nominal ([9]; Low (10.01 ng/ml)): 5.2%
on-bench stability (in words) ([9]; ~ 12 h on-bench at room temperature): stable
OIS (on-instrument stability), % Bias ([6]; High (800.0 ng/ml)): 0.9%
OIS (on-instrument stability), % Bias ([6]; Low (10.01 ng/ml)): 4.5%
on-instrument stability (in words) [6]: stable
SMILES: CC(C)(C)n1nnnc1C(NCCNc1ccnc2cc(Cl)ccc12)c1ccc(Cl)c(Cl)c1 (stereo not drawn) [TK900D]
IC50 [1]: 0.0004 µM
IC50 [2]: 0.0082 µM
IC50 [3]: 0.0305 µM
IC50 (CHO mammalian cell line): 10.5 µM
